Measurements published in patent US20080311221A1, “LEWIS ACID AND OIL-SOLUBLE HYBRID PESTICIDE CONCENTRATE THAT SPONTANEOUSLY FORMS A WATER-BASED MICROEMULSION” (PBI/Gordon Corporation, priority 2007, published 2008).

Assays:
[1] = Standard accelerated chemical stability test, HPLC of each active, 40° C. for thirty days; type: physicochemical; settings: for Final percent concentration of active in concentrate: HPLC after 40° C. for thirty days, sealed container; for Initial percent concentration of active in concentrate: HPLC before storage, concentrate of Example 4 (so in the source); for % Diff: final vs initial, 40° C. for thirty days
Protocol: Another sample of the concentrate Example 4 was subjected to a standard accelerated chemical stability test by conducting an HPLC analysis of each of the active ingredients to determine the percent concentration of each active in the concentrate. The sample was then placed in a sealed container and stored at 40° C. for thirty days. An HPLC analysis was repeated following the extended storage period. All are within accepted limits as established by U.S. EPA for pesticidal products.

[2] = Ambient storage stability test, HPLC, 25° C. for two and one-half months; type: physicochemical; settings: for Final percent concentration of active in concentrate: HPLC after 25° C. for two and one-half months; for Initial percent concentration of active in concentrate: HPLC before storage, concentrate of Example 4 (so in the source); for % Diff: final vs initial, 25° C. for two and one-half months
Protocol: A further sample of the concentrate of Example 4 was tested under ambient storage conditions at 25° C. for two and one-half months. The sample was initially subjected to an HPLC test, and then again tested at the end of the storage period.

Compound | Final percent concentration of active in concentrate [1] [%] | Initial percent concentration of active in concentrate [1] [%] | % Diff [1] [%] | Final percent concentration of active in concentrate [2] [%] | Initial percent concentration of active in concentrate [2] [%] | % Diff [2] [%]
O=C(O)COc1ccc(Cl)cc1Cl [2,4-D] | 8.987 | 9.203 | −2.35 | 9.154 | 9.203 | −0.53
COc1c(Cl)ccc(Cl)c1C(=O)O [Dicamba] | 1.091 | 1.141 | −4.38 | 0.933 | 0.946 | −1.37
CSC(=O)c1c(C(F)F)nc(C(F)(F)F)c(C(=O)SC)c1CC(C)C [Dithiopyr] | 1.909 | 1.977 | −3.44 | 1.921 | 1.977 | −2.83
O=C(O)c1c(Cl)ccc2cc(Cl)cnc12 [Quinclorac] | 1.876 | 1.91 | −1.78 | 1.929 | 1.91 | 0.99
Cc1nn(-c2cc(NS(C)(=O)=O)c(Cl)cc2Cl)c(=O)n1C(F)F [Sulfentrazone] | 0.363 | 0.379 | −4.22 | 0.380 | 0.379 | 0.26
